Residue numbers refer to the chain shown, from its start.
Columns and labels:
Control alkyltransferase = target: T1, Control alkyltransferase (Homo sapiens, UniProt P16455); test: Inhibition of alkyltransferase proteins, control protein; assay type: biochemical; conditions: concentration to inactivate 50% of the activity in 30 minutes, read-out: ED50 value
T1 sequence (P16455 1-207): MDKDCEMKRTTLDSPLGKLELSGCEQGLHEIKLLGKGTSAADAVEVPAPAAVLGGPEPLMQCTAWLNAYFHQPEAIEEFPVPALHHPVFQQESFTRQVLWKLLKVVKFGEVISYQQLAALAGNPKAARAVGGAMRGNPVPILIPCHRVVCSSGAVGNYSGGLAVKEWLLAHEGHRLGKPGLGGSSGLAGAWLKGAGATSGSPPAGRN

alkyltransferase P140A = target: T2, alkyltransferase P140A (Homo sapiens, UniProt P16455, P140A); test: Inhibition of mutant alkyltransferase proteins, P140A; assay type: biochemical; conditions: P140A; concentration to inactivate 50% of the activity in 30 minutes; read-out: ED50 value
T2 construct: made in house
T2 sequence (P16455 1-207 P140A): T1 sequence (P16455 1-207) with P140A

[1] = target: T3, alkyltransferase P138A/P140A (Homo sapiens, UniProt P16455, P138A/P140A); test: Inhibition of mutant alkyltransferase proteins, P138A/P140A; assay type: biochemical; conditions: P138A/P140A; concentration to inactivate 50% of the activity in 30 minutes; read-out: ED50 value
T3 construct: made in house
T3 sequence (P16455 1-207 P138A/P140A): T1 sequence (P16455 1-207) with P138A, P140A

alkyltransferase G156A = target: T4, alkyltransferase G156A (Homo sapiens, UniProt P16455, G156A); test: Inhibition of mutant alkyltransferase proteins, G156A; assay type: biochemical; conditions: G156A; concentration to inactivate 50% of the activity in 30 minutes; read-out: ED50 value
T4 construct: made in house
T4 sequence (P16455 1-207 G156A): T1 sequence (P16455 1-207) with G156A

mutant alkyltransferase = test: Inactivation of mutant (resistant) alkyltransferase, overall statements; assay type: biochemical, human; conditions: intracellular concentration, extrapolated from Table 6
[2] = target: T5, O^6-alkylguanine-DNA alkyltransferase (AGT) (Homo sapiens, UniProt P16455); test: AGT inactivation in intact HT29 cells
T5 sequence (P16455 1-207): T1 sequence (P16455 1-207)
Description: (§1) The data represent the dose of compound required to produce 50% inactivation in cell-free extracts upon incubation for 30 min or in cells upon incubation for 4 hr.

[3] = target: T5, O^6-alkylguanine-DNA alkyltransferase (AGT); test: AGT inactivation in HT29 cell-free extract
Description: as §1

HT-29 colon cancer cells = test: Killing of HT-29 colon cancer cells by BCNU combined with AGT inactivators (colony formation); conditions: BCNU 40 μM; for Colony Formation per 1000 cells: HT-29
Description: (§2) Cells were treated for 2 h with AGT inactivator prior to exposure to BCNU.

[4] = test system: MCF-71 breast cancer cells; test: Killing of MCF-71 breast cancer cells by BCNU combined with AGT inactivators (colony formation); conditions: inactivator […], BCNU 40 μM
Description: as §2

[5] = test system: DU-145 prostate cancer cells; test: Killing of DU-145 prostate cancer cells by BCNU combined with AGT inactivators (colony formation); conditions: inactivator 1 μM, BCNU 40 μM
Description: as §2

## Nc1nc(N)c(N=O)c(OCc2ccccc2)n1 [Compound 3d, 2,4-diamino-6-benzyloxy-5-nitrosopyrimidine]
Control alkyltransferase
  EC50: 50 nM
Alkyltransferase P140A
  EC50: 100 nM
[1]
  EC50: 300 nM
Alkyltransferase G156A
  EC50: 1000 nM
Mutant alkyltransferase
  concentration needed to be effective at inactivating resistant alkyltransferase: greater than 5 μM
[2]
  EC50: 20 nM
[3]
  EC50: 60 nM
[3]; comparison
  AGT inactivating activity in HT29 cell-free extracts, in words: the most active AGT inactivators tested to date
HT-29 colon cancer cells; statement covers HT29, DU-145 and MCF-71 cells (Tables 3-5)
  enhancement of BCNU cytotoxicity, in words: similarly effective at a 4-fold lower dose
HT-29 colon cancer cells; inactivator 1 μM
  Colony Formation per 1000 cells: 19 ± 4 per 1000 cells
HT-29 colon cancer cells; inactivator […]
  Colony Formation per 1000 cells: <1 per 1000 cells
[4]
  Colony Formation per 1000 cells: 2 ± 1 per 1000 cells
[5]
  Colony Formation per 1000 cells: 25 ± 4 per 1000 cells

Reference: patent US6436945B2, “Substituted O6-benzyl-8-aza-guanines” (The United States of America as represented by the of …, priority 1994, dated 2002)
